Measured values as given in US20120035187A1 (priority 2009, published 2012).
Marks after values point to notes of the source that are not given here.

Assays:
brain ischemia rat [1] = assay: Brain ischemia (cerebral infarction model) rat: behavioral score; format: in vivo; parameters: Behavioral score: scale not given here; details: for behavioral score (in words): Experiment 13, cerebral-infarction-model rat, administered through caudal vein
Method: Male SD rats, seven- to eight-weeks of age and 280 to 330 g body weight, commercialized by Charles River Laboratories Japan Inc., Kanagawa, Japan, were allocated randomly into seven groups, consisting of five to seven rats in each group. Among the seven groups, five groups were subjected to the following surgery as test groups: Rats in the test groups were subcutaneously administered with 0.3 mg/kg body weight of atropine, commercialized by Fuso Pharmaceutical industries, Osaka, Japan. Successively, each rat was anesthetized by administrating 600 mg/kg body weight of urethane, commercialized by Sigma-Aldrich Co., MO, USA, and 60 mg/kg-weight of […], commercialized by Sigma-Aldrich Co., MO, USA, into the peritoneal cavity, and fixed to a fixator under voluntary breathing conditions. The right carotid artery bifurcation was exposed by median incision of the neck without damaging vagus nerve. The common carotid artery and external carotid artery around the right carotid artery bifurcation were exfoliated from surrounding connective tissue and wired respectively using “NESCOSUTURE”, a 6-0 nylon string commercialized by Alfresa Pharma Corporation, Osaka, Japan. Then, the internal carotid artery was tied with the 6-0 nylon string for fixation after insertion of an obturator. Successively, the common carotid artery was incised and a silicon-coated obturator, prepared by a 4-0 nylon string, commercialized by Doccol Corp., CA, USA, was inserted from the common carotid artery into the internal carotid artery at a distance of about 16 mm, and clipped to the common carotid artery (see, for example, Koizumi et al., Cerebral stroke, Vol. 8, No. 1, pp. 1-8 (1986)). By the method, the silicon-coated tip of obturator was inserted through the right carotid artery bifurcation to frontal cerebral artery at a distance of about 2 mm and obstructs the inlet of the medial cerebral artery. After two hours occlusion of the medial cerebral artery while keeping the rat on an isothermal pad controlled at a temperature of 37° C., blood was allowed to reperfuse by withdrawing the obturator. Then, the internal carotid artery was tied near the carotid artery bifurcation for preventing the bleeding from the incised part of the common carotid artery. In the model, the blood was reperfused through the left carotid artery, vertebral artery, basilar artery, frontal and backward communication artery because the right carotid artery was clipped.
NK-4, NK-19, NK-53, NK-100, and NK-557, used in the test, were respectively dissolved in DMSO (product No. “D8418”, commercialized by Sigma-Aldrich Co., MO, USA) to give a concentration of 5 mg/ml and filtrated using “MILLEX-LG SLLG025SS”, a DMSO-resistant membrane filter commercialized by Millipore, MA, USA. Stock […], and then 4 ml/kg body weight of any of the resulting diluted solutions was administered ([…]) to five test groups (test groups 1 to 5) consisting of five or seven rats, through their caudal veins at both after one hour from the occlusion of middle cerebral artery and immediately after initiating reperfusion. After 24 hours from the reperfusion of blood, behavioral and histological evaluations of rats were carried out according to the following procedures: As a control group 1, five rats in one group out of the remaining two groups were subjected to the same surgery as the rats in the test groups 1 to 5, and administered with 4 ml/kg body weight of PBS free of any of the compounds through their caudal veins at both after one hour of the medial cerebral artery occlusion and immediately after the start of reperfusion. As the control group 2, six rats in the remaining one group were subjected to a sham surgery, in which common, external, and internal carotid arteries were clipped and then reperfused their blood without inserting the obturator to each medial cerebral artery. […]

brain ischemia rat [2] = assay: Brain ischemia (cerebral infarction model) rat: size/volume of cerebral infarction region (TTC); format: in vivo; details: for increment of the volume of cerebral infarction region (in words): Experiment 13, cerebral-infarction-model rat, administered through caudal vein; for Volume of cerebral infarction region (mm^3): embolus rat, caudal vein; for Size of cerebral infarcttion region (%): brain ischemia rats, 100 p g/kg body weight via caudal vein twice, relative to control group 1 = 100%
microglia = assay: NO production from microglia in the presence of LPS; format: cell-based, rat; details: concrete data not shown
[3] = Hydroxyl radical-scavenging activity, ESR (Fenton reaction)
Method: Stock solutions, prepared by dissolving NK-4, NK-19, NK-53, NK-100, and NK-557 in DMSO, were respectively diluted with refined water to give concentrations of 3-folds higher than those in Table 14 and used as test sample solutions. As a positive control, a neuroprotectant, “edaravone”, commercialized as “RADICUT®” containing 3-methyl-1-phenyl-2-pyrazoline-5-one as an effective ingredient by Mitsubishi Tanabe Pharma Corporation, Osaka, Japan, was diluted with refined water to give a concentration of 3-folds higher than that in Table 14 for use. To 50 μl of refined water, 50 μl of 89 mM DMPO ([…]) commercialized by Dojindo Laboratories, Kumamoto, Japan, 50 μl of the test sample solution, and 50 μl of an aqueous solution containing 1 mM hydrogen peroxide, 1 mM FeSO4, and 1 mM DTPA, commercialized by Wako Pure Chemical Industries, Osaka, Japan, were added, mixed for 10 seconds using a vortex mixer and allowed to react in an incubator controlled at 37° for 40 seconds. After 30 seconds from completion of the reaction, the resulting reaction mixture was subjected to ESR measurement. A control solution was prepared by the same method as above except for using 50 μl of a diluted edaravone solution as a substitute for the test sample solution, and subjected to ESR measurement.
The reaction mixture for measuring hydroxyl or peroxyl radicals was poured into a flat quartz cell for ESR, set to “FREE RADICAL MONITOR JES-FR30”, an ESR apparatus commercialized by JOEL Ltd., Tokyo, Japan, and ESR was measured according to manual manner. The residual ratio of peroxyl radical (%) was determined as a relative value by defining the ESR value, obtained by using 0.1 M phosphate buffer as a substitute of the test sample solution, as 100. The results are in Tables 14 and 15. […] Therefore, the IC50 of edaravone was determined by another test using its higher concentration, and the result is also shown in Table 14. The conditions of the ESR measurement were set as follows: […]

[4] = embolus rat, dose 100 μg per kg body weight, caudal vein
[5] = concentration of compound 2.5 μg/ml
[6] = concentration of compound 3.13 μg/ml
[7] = concentration of compound 6.25 μg/ml
[8] = concentration of compound 12.5 μg/ml
[9] = brain ischemia rats (embolus, 2 h occlusion, reperfusion), 100 p g/kg body weight via caudal vein 1 h after occlusion and at reperfusion, 24 hours after reperfusion, maximum score 6

Compound	behavioral score (in words) (brain ischemia rat [1])	Behavioral score (brain ischemia rat [1]; [4])	increment of the volume of cerebral infarction region (in words) (brain ischemia rat [2])	Volume of cerebral infarction region (mm^3) (brain ischemia rat [2]; dose 100 μg per kg body weight)	suppressing NO production from microglia (microglia)	IC50 (μg/ml) of hydroxyl radical-scavenging activity [3]	Residual ratio of hydroxyl radical (%) [3, 5]	Residual ratio of hydroxyl radical (%) [3, 6]	Residual ratio of hydroxyl radical (%) [3, 7]	Residual ratio of hydroxyl radical (%) [3, 8]	Behavioral score (brain ischemia rat [1]; [9])	Size of cerebral infarcttion region (%) (brain ischemia rat [2])	also measured
CCCCN1C=C/C(=C/C=C(/C=C/c2cc[n+](CCCC)c3ccccc23)c2cc[n+](CCCC)c3ccccc23)c2ccccc21 [NK-26]	significantly improved	4.3 ± 0.4	significantly suppressed	169 ± 23 mm^3	actions of suppressing NO production	–	–	–	–	–	–	–	Behavioral score (brain ischemia rat [1]; embolus rat, dose 1 μg per kg body weight, caudal vein): 4.4 ± 0.4; Behavioral score (brain ischemia rat [1]; embolus rat, dose 10 μg per kg body weight, caudal vein): 3.44 ± 0.6; Volume of cerebral infarction region (mm^3) (brain ischemia rat [2]; dose 1 μg per kg body weight): 194 ± 22 mm^3; Volume of cerebral infarction region (mm^3) (brain ischemia rat [2]; dose 10 μg per kg body weight): 121 ± 22* mm^3
CC[n+]1ccccc1/C=C/c1ccc(N(C)C)cc1 [NK-557]	–	–	–	–	–	6.2 µg/mL	15 ± 6 %	71 ± 1 %	50 ± 1 %	30 ± 1 %	2.9 ± 0.3	61.1 ± 14.2%	–
CCN1C=CC(=CC=C(C=Cc2cc[n+](CC)c3ccccc23)c2cc[n+](CC)c3ccccc23)c2ccccc21.[I-].[I-] [NK-4]	significantly improved	2.6 ± 0.2	significantly suppressed	88 ± 18** mm^3	actions of suppressing NO production	6.7 µg/mL	15 ± 1 %	67 ± 1 %	49 ± 2 %	26 ± 1 %	2.9 ± 0.2	49.4 ± 5.1 %	Behavioral score (brain ischemia rat [1]; embolus rat, dose 25 μg per kg body weight, caudal vein): 4.5 ± 0.6; Behavioral score (brain ischemia rat [1]; embolus rat, dose 50 μg per kg body weight, caudal vein): 3.3 ± 0.4; Behavioral score (brain ischemia rat [1]; embolus rat, dose 200 μg per kg body weight, caudal vein): 3.7 ± 0.4; Behavioral score (brain ischemia rat [1]; embolus rat, dose 300 μg per kg body weight, caudal vein): 4.2 ± 0.5; Volume of cerebral infarction region (mm^3) (brain ischemia rat [2]; dose 25 μg per kg body weight): 186 ± 21 mm^3; Volume of cerebral infarction region (mm^3) (brain ischemia rat [2]; dose 50 μg per kg body weight): 107 ± 21* mm^3; Volume of cerebral infarction region (mm^3) (brain ischemia rat [2]; dose 200 μg per kg body weight): 143 ± 26 mm^3; Volume of cerebral infarction region (mm^3) (brain ischemia rat [2]; dose 300 μg per kg body weight): 176 ± 31 mm^3
CCN1/C(=C/C=C(/C=C/c2sc3ccccc3[n+]2CC)c2sc3ccccc3[n+]2CC)Sc2ccccc21.[I-].[I-] [NK-100]	–	–	–	–	–	6.6 µg/mL	8 ± 0 %	68 ± 1 %	51 ± 1 %	32 ± 1 %	2.4 ± 0.2	74.5 ± 11.4%	–
CCCN1C=CC(=CC=C(C=Cc2cc[n+](CCC)c3ccccc23)c2cc[n+](CCC)c3ccccc23)c2ccccc21.[I-].[I-] [NK-234]	–	–	–	–	actions of suppressing NO production	–	–	–	–	–	–	–	–
